Experimental data reported in ChEMBL document CHEMBL1201862, “PubChem BioAssay data set” (2004).
Activity calls are given as the source filed them. Cut-off read from the data, not from the text of the source, for most assays here: actives have a measured EC50 and inactives only a lower limit.

What was measured:
[1] = viability of uninfected HEp-2 cells – cell-based, HTS, cytotoxicity control for RSV inhibitor project, dose response (AID 2410); type: functional; settings: human respiratory syncytial virus
[2] = target: T1, Heat shock factor protein 1 (Mus musculus, UniProt P38532); assay: decrease of HSF1-responsive luciferase luminescence – cell-based, NIH3T3, dose retest, confirmation (AID 2382); type: functional;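 note: NIH3T3 fibroblasts with HSF1-driven luciferase reporter stressed by proteasome inhibitor MG132; luminescence from HSF1-driven luciferase expression after 8 hours of MG132 stress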
T1 sequence (P38532 whole entry): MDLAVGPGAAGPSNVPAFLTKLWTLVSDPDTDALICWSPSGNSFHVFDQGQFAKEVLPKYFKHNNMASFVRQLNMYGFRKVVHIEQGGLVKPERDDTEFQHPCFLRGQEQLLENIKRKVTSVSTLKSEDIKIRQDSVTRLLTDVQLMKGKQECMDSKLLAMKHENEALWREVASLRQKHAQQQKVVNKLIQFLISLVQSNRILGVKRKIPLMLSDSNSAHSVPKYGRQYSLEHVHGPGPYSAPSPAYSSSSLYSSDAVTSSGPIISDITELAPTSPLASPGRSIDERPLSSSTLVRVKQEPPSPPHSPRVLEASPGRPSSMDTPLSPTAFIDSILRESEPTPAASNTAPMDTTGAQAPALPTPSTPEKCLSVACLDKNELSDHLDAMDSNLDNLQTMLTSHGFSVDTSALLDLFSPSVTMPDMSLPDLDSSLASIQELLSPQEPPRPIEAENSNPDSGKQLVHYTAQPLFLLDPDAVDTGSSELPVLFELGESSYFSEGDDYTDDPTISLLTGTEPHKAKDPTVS

Cytochrome P450 2C9 = Cytochrome P450 2C9 (Homo sapiens, UniProt P11712)
Chain of Cytochrome P450 2C9 (P11712 whole entry): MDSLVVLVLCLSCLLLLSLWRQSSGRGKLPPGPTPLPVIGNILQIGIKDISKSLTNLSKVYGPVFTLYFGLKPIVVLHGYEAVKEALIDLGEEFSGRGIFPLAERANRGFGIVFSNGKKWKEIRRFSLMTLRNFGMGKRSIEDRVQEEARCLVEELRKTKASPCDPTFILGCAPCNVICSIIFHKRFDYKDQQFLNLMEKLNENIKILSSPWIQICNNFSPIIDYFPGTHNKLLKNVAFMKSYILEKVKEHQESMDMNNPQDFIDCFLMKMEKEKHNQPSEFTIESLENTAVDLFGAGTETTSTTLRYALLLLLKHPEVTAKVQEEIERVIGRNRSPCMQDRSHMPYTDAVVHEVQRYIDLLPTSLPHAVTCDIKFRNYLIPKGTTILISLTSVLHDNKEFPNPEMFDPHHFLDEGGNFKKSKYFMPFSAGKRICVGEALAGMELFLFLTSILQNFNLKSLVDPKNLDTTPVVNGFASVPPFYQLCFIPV

Cytochrome P450 2D6 = Cytochrome P450 2D6 (Homo sapiens, UniProt P10635);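 note: CYP2D6 member of a cytochrome P450 panel assay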
Chain of Cytochrome P450 2D6 (P10635 whole entry): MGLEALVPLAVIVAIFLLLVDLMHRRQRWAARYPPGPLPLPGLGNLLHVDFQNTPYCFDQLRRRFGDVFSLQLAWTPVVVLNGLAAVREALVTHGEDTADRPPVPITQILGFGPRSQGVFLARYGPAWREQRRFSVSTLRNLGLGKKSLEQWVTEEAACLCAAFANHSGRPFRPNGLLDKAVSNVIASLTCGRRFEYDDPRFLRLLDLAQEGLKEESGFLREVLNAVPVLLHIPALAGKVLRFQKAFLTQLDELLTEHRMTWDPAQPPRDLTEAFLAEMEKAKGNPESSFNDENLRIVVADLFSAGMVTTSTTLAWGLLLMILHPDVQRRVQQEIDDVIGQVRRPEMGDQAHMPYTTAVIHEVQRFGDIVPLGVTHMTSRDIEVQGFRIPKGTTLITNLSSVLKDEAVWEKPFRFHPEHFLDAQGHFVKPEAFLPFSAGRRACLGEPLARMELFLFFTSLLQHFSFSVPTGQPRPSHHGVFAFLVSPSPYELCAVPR

[3] = Luminescence Cell-Based Dose Retest to Confirm Inhibitors of Cancer Stem Cells. [Related pubchem assays (depositor defined):AID2717, AID2721]; type: functional; settings: Homo sapiens
[4] = target: T2, Corticotropin-releasing factor receptor 2/Corticotropin-releasing factor-binding protein (Homo sapiens, UniProt P24387+Q13324); assay: activators of CRF receptor 2 with binding protein – uHTS hits, confirmation (AID 602473); type: functional; settings: read-out: EC50_Mean
T2 sequence (Q13324 whole entry): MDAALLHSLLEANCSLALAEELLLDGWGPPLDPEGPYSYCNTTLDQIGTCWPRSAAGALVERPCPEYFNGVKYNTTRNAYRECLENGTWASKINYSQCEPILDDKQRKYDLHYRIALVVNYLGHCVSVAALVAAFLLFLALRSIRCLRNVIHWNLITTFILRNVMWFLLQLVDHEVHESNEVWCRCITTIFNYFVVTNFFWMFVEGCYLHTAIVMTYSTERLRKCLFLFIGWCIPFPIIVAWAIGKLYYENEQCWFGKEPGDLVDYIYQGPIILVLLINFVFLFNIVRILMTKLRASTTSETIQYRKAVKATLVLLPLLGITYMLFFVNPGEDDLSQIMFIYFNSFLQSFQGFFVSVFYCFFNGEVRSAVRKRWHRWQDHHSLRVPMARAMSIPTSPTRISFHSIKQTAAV
T2 sequence (P24387 whole entry): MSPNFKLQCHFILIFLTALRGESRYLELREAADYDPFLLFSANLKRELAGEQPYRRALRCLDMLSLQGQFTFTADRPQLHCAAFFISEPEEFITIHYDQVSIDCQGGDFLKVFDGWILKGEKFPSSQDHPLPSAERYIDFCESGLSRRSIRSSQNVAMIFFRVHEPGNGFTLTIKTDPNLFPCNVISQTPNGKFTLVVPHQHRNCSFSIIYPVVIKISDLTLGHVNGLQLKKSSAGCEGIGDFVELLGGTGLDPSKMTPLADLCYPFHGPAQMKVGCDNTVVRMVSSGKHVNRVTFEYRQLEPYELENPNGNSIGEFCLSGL

[5] = target: T2, Corticotropin-releasing factor receptor 2/Corticotropin-releasing factor-binding protein; assay: Dose Response confirmation of uHTS hits for small molecule antagonists of the CRF-binding protein and CRF-R2 receptor complex.; type: functional; settings: read-out: IC50_Mean
[6] = target: T3, Replicative DNA helicase DnaB (Mycobacterium tuberculosis, UniProt P9WMR3); assay: DnaB intein splicing inhibitors, dose response, biochemical, cell-free fluorescence (AID 449749); type: functional
T3 sequence (P9WMR3 whole entry): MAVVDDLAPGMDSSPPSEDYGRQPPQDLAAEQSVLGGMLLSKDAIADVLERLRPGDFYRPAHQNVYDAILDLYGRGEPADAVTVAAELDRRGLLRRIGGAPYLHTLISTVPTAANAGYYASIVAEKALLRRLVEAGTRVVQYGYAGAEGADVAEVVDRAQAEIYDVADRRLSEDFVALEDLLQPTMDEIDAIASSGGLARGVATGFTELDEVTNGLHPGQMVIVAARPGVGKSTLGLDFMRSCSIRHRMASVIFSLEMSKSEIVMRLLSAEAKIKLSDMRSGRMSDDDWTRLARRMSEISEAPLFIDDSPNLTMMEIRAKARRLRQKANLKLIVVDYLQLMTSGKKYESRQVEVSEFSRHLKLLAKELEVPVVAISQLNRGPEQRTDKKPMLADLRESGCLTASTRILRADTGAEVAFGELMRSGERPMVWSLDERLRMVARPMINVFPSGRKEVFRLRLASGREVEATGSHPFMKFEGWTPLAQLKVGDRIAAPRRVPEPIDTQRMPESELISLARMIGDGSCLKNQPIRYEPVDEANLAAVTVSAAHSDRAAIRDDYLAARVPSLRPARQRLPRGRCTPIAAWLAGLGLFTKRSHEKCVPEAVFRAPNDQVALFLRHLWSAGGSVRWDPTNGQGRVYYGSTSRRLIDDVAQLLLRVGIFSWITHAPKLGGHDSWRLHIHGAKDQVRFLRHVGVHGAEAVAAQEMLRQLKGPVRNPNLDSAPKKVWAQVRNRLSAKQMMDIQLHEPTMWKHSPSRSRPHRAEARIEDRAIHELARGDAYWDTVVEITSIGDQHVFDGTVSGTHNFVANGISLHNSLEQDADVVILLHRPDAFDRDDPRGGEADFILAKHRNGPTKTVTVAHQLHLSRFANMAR

Protein RecA = target: T4, Protein RecA (Mycobacterium tuberculosis, UniProt P9WHJ3); assay: Fluorescence Cell-Free Homogeneous Dose Retest to Identify Inhibitors of RecA-Intein Splicing Activity. [Related pubchem assays (depositor defined):AID2097, AID2223, AID489010, AID492950]; type: functional
T4 sequence (P9WHJ3 whole entry): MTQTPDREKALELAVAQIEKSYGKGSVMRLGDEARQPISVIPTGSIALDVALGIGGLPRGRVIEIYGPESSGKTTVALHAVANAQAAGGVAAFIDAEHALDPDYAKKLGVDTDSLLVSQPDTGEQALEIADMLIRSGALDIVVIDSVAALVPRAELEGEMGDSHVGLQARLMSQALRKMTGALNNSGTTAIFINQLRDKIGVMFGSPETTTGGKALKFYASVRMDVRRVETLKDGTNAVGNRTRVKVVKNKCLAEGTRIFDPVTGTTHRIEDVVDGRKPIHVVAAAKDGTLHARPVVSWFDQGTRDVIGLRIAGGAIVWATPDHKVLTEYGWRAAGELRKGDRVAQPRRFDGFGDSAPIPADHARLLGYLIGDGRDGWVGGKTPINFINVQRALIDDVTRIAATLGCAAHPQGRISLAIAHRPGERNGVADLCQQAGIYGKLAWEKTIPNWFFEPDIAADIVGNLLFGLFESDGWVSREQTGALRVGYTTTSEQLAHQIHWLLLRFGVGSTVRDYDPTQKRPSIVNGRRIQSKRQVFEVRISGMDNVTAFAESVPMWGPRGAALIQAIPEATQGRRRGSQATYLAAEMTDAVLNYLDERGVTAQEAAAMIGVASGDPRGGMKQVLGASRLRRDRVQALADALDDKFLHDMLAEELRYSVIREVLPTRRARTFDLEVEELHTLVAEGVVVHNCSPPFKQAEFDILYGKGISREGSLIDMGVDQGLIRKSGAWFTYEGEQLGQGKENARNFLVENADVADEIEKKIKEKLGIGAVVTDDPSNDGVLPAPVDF

[7] = alpha-synuclein stem-loop luciferase translation blockers – H4 neuroglioma cells, luminescence, confirmation (AID 1988); type: functional, cell-based
[8] = luciferase reporter signal suppression in cells – H4 neuroglioma cells, luminescence, dose response (AID 1990); type: functional, cell-based
[9] = Luminescence Cell-Based Dose Response HTS to Identify Inhibitors of 5'UTR Stem-Loop Driven Prion Protein mRNA Translation in H4 Neuroglioblastoma Cells. [Related pubchem assays: 1827 (Project Summary), 1813 (Primary HTS)]; type: functional
[10] = NIH3T3 cell viability loss – ATP luminescence, mouse fibroblasts, counter-screen, dose response (AID 2010); type: functional, cell-based;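 note: cells exposed to compound for about 90 hours before reading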
[11] = Trypanosoma cruzi growth suppression in host cells – NIH3T3 host cells, beta-gal luminescence, confirmation (AID 2044); type: functional, cell-based;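 note: intracellular parasites grown in NIH/3T3 mouse fibroblasts as host cells; luminescent beta-galactosidase reporter signal from transgenic T. cruzi replicating inside host cells; inhibitors lower the luminescence signal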

CCC(=O)c1cc(F)c(N2CCN(C(=O)Cc3ccccc3)CC2)cc1C
CC50 [1]: 17 µM (active)

CN(C)c1ccc(-c2nc3n(n2)C(c2cccnc2)C2=C(O)CC(C)(C)CC2=N3)cc1 (configuration not stated)
EC50 [2]: > 195 µM (not active) | AC50 (Cytochrome P450 2C9): 28.2 µM (inconclusive) | AC50 (Cytochrome P450 2D6): 17.8 µM (inconclusive)

Nc1ccc(CCN2CCN(c3cccc(C(F)(F)F)c3)CC2)cc1
AC50 [3]: 1.35 µM (active) | AC50 (Cytochrome P450 2D6): 12.6 µM (inconclusive)

CC(C)(C)c1cc(C(=O)O)nn1-c1ccccc1
EC50 [4]: > 53 µM (inactive) | IC50 [5]: > 47.1 µM (inactive)

CCOc1ccc(S(=O)(=O)N2CCC(C(=O)NCC(=O)Nc3cccc(Cl)c3C)CC2)cc1
CC50 [1]: 49.1 µM (active)

COCc1cc(O)n2nc(-c3ccccc3)cc2n1
EC50 [4]: > 53 µM (inactive) | IC50 [5]: > 47.1 µM (inactive)

COC(=O)Nc1nn(-c2ccc(OC)cc2)c(=O)c(C#N)c1C
AC50 [6]: 25.9 µM (active) | EC50 (Protein RecA): 6.31 µM (active)

COc1ccc(-c2cc(-c3ccccc3O)[nH]n2)cc1OC
CC50 [1]: > 50 µM (active)

Cc1cc(C)c2c(c1)cc(C)c1nnc(SCC(=O)N3CCCc4ccccc43)n12
CC50 [1]: 44.2 µM (active)

CCc1cccc(NC(=O)c2cccc3c2C(=O)N(C2CCCCC2)C3)c1
CC50 [1]: 38.1 µM (active)

COc1ccc(OCCCC(=O)Nc2cccnc2)cc1
EC50 [4]: > 53 µM (inactive) | IC50 [5]: > 47.1 µM (inactive)

c1ccc(Sc2ncnc3ccccc23)cc1
AC50 [6]: 21.9 µM (active) | EC50 (Protein RecA): 11.2 µM (active)

CCOc1ccccc1NC(=O)C1CCCN1S(=O)(=O)c1ccccc1C(F)(F)F (configuration not stated)
EC50 [4]: > 53 µM (inactive) | IC50 [5]: > 47.1 µM (inactive)

Nc1ccc(C(=O)N/N=C/c2cn(Cc3ccc(F)cc3)c3ccccc23)cc1
EC50 [7]: 7.7 µM (active) | EC50 [8]: 10.1 µM (active) | EC50 [9]: 17.7 µM (active)

O=C(COc1ncnc2sccc12)N1CCN(C(=O)c2ccco2)CC1
EC50 [7]: > 120 µM (not active) | EC50 [8]: > 120 µM (not active) | EC50 [9]: > 120 µM (not active)

CCC(NN1CCCCC1)=C1C(=O)NC(=O)NC1=O
EC50 [7]: 10.2 µM (active) | EC50 [8]: 11.9 µM (active) | EC50 [9]: > 120 µM (not active)

COc1cccc(Nc2ncc(C#N)c(N)n2)c1
EC50 [7]: 14.5 µM (active) | EC50 [8]: 16.4 µM (active) | EC50 [9]: 14.2 µM (active)

CCOC(=O)c1ccc(N2CN(CC)CN=C2S)cc1
EC50 [7]: > 120 µM (not active) | EC50 [8]: > 120 µM (not active) | EC50 [9]: > 120 µM (not active)

O=C(COC(=O)c1ccncc1)Nc1cc(Cl)ccc1Cl
EC50 [4]: > 53 µM (inactive) | IC50 [5]: > 47.1 µM (inactive)

Cc1nn(Cc2ccccc2Cl)c(C)c1NC(=O)c1nc2ncccn2n1
EC50 [4]: > 53 µM (inactive) | IC50 [5]: > 47.1 µM (inactive)

COC(=O)N/N=C\c1ccc(OC(=O)c2ccco2)cc1
AC50 [6]: 44.6 µM (active) | EC50 (Protein RecA): 16.7 µM (active)

CC(=O)N(C(C)=O)c1ncnc2c1c(-c1ccc(Cl)cc1)nn2C(C)(C)C
EC50 [10]: 4.21 µM (active) | EC50 [7]: 25.1 µM (active) | EC50 [11]: 0.512 µM (active) | EC50 [8]: 13.1 µM (active) | EC50 [9]: 20.1 µM (active)

CCOC(=O)c1[nH]c2ccccc2c1NC(=O)Nc1ccc(OC)cc1
EC50 [4]: > 53 µM (inactive) | IC50 [5]: > 47.1 µM (inactive)

Cc1ccc(NC(=O)CSc2nc3ccccc3c(=O)n2CCCC(=O)NCCCN2CCOCC2)cc1
EC50 [4]: > 53 µM (inactive) | IC50 [5]: > 47.1 µM (inactive)

C/C(CC(=O)NCc1ccco1)=N\NC(=O)c1ccc([N+](=O)[O-])cc1Cl
AC50 [6]: 10.2 µM (active) | EC50 (Protein RecA): 5.56 µM (active)

CC(C)C(NC(=O)c1ccco1)C(=O)NC1CCCCCC1 (configuration not stated)
EC50 [4]: > 53 µM (inactive) | IC50 [5]: > 47.1 µM (inactive)

CCc1ccc(CNn2cnnc2SCC(=O)NC(C)(C)C)cc1
EC50 [7]: > 120 µM (not active) | EC50 [8]: > 120 µM (not active) | EC50 [9]: > 120 µM (not active)

COCCN(Cc1ccccc1)C(S)=Nc1ccc(Cl)cc1
EC50 [2]: 30.3 µM (active) | EC50 [7]: 16.8 µM (active) | EC50 [8]: > 120 µM (not active) | EC50 [9]: > 120 µM (not active)

CCOc1ccccc1N(C)C(=O)Cn1ncc2c3ccccc3nc-2c1O
EC50 [4]: > 53 µM (inactive) | IC50 [5]: > 47.1 µM (inactive)

Cc1ccc(C(=O)COc2cc(O)c3c(=O)cc(-c4ccccc4)oc3c2)cc1
EC50 [4]: > 53 µM (inactive) | IC50 [5]: > 47.1 µM (inactive)
